Reference: publication PMC8448677, “A novel assay based on pre-equilibrium titration curves for the determination of enzyme inhibitor binding kinetics” (European Biophysics Journal, 2021)
Starred links: 1 amine or outer side, 2 acyl side, 3 side chain; linkers in the order of their positions; H or OH if unused. Positions of bridges follow the written chain, without caps; N, C: chain ends. Non-standard residues stand in square brackets, D forms with d. Residues, ends and D or L forms follow the SMILES beside them. TBMB = c1c(C[*:1])cc(C[*:3])cc1C[*:2]; NMeR = CN[C@@H](CCCNC(=N)N)C(=O)O; hArg = N=C(N)NCCCC[C@H](N)C(=O)O; Aze = O=C(O)[C@@H]1CCN1; Sar = CNCC(=O)O

target: T1, Human PKal (plasma kallikrein) (Homo sapiens, UniProt P03952); experiment: Pre-equilibrium titration curve inhibition assay of plasma kallikrein (fluorogenic substrate H-Pro-Phe-Arg-AMC, global fit with Eq. 7); type: biochemical; conditions: Ki = koff/kon from pre-equilibrium curves, 25 °C, pH 7.5, PKal 1 nM (0.25 nM for 4b), mean ± SD of at least 3 independent measurements, read-out: Ki
T1 construct: purchased Molecular Innovations HPKA
T1 sequence (P03952 391-638 limits assumed): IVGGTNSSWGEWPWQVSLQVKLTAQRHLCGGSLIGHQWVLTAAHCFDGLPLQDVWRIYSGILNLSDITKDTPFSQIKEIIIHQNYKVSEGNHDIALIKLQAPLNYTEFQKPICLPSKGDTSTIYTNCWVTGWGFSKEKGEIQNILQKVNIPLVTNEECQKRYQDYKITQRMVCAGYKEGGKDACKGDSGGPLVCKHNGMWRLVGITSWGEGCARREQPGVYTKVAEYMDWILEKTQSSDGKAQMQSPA
T1 sequence (P03952 20-390 partner limits assumed): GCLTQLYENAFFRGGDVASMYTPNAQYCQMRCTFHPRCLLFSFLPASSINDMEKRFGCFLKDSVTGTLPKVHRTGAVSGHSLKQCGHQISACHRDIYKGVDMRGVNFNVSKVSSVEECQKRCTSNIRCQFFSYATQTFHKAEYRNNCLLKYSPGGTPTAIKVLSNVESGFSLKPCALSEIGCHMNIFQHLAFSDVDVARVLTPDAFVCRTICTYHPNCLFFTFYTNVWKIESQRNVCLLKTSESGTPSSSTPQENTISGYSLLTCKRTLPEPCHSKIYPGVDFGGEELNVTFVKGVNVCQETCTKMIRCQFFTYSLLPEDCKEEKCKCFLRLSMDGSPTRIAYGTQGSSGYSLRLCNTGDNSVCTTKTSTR
Experimental: The TBMB-based bicyclic peptide inhibitors of PKal used in this study are listed in Table 1, some of which have been described previously (Teufel et al. [2018]). Experiments were performed at 25 °C in 20 mM Tris–HCl, 150 mM NaCl, 1 mM EDTA, 0.1% PEG-6000, 0.1% Triton X-100, pH 7.5. Human PKal (Molecular Innovations, cat. HPKA, typical nominal concentration 1 nM for all peptides except 0.25 nM for peptide 4b) was pre-incubated in 96-well plates with different concentrations of the tested peptide (typically a serial twofold dilution plus a control with no peptide) in a reaction volume of 90 µL. At different timepoints, the fluorogenic substrate H-Pro-Phe-Arg-AMC (Bachem, cat. I-1295.0050, 10 µL, 20 µM final) was added to the relevant wells, and the increase in fluorescence at 480 nm (with excitation at 360 nm) was recorded using a Spectramax M2e plate reader (Molecular Devices). Initial rates of substrate hydrolysis were obtained by linear fit of the raw fluorescence vs. time traces. In addition, fluorescence was recorded ensuring that no more than 10% of the substrate were hydrolyzed, and for periods of time (typically 30–60 s) short enough to obtain linear traces. The data were plotted as the initial rate of substrate hydrolysis vs. peptide concentration for the different times of incubation prior to substrate addition (as shown in Fig. 3) and analyzed using Eq. 7.
To compute unique values of kon and koff, data sets such as those of Fig. 3 must be analyzed “globally”, i.e., considering all pre-equilibrium inhibition curves as a unique data set, as allowed by modern nonlinear regression analysis software’s. In this study, we used GraphPad Prism ver. 5.02 (GraphPad Software Inc., La Jolla, CA) applying equal weighting (i.e., performing minimization based on absolute distances squared), and we invite the reader to consult the software’s user’s manual for a detailed description of how global fitting of such data sets can be performed (https://cdn.graphpad.com/faq/2/file/Prism_v5_Regression_Guide.pdf). One point to highlight is that the parameters kon, koff and E0 should be “shared”, to employ the terminology used in GraphPad Prism, i.e., that one unique value of these parameters is used to fit the data. […] As discussed previously for the analysis of data obtained under equilibrium, i.e., using Eq. 1 (see Teufel et al. [2018]), the term E0 in Eq. 7 can be treated as a shared but adjustable parameter or, as here, fixed to its known value. The terms v0, kon and koff, by contrast, always need to be treated as adjustable parameters. Finally, the knowledge of the kinetic parameters kon and koff enables calculation of the equilibrium inhibition constant Ki (Ki = koff/kon).
In the case of H-Pro-Phe-Arg-AMC, however, the Km for human PKal is large (Teufel et al. [2018]) and experiments were performed under conditions where [S] < < Km. Therefore, the values for kon, koff and Ki reported here can be considered as representing actual values.

| Ki [pM] | SMILES |
| --- | --- |
| 1800 ± 200 | CC(=O)N[C@H]1CSCc2cc3cc(c2)CSC[C@H](NC(=O)[C@H](Cc2c[nH]c4ccccc24)NC(=O)[C@@H]2CCCN2C(=O)[C@H](CC(N)=O)NC(=O)[C@H](Cc2c[nH]c4ccccc24)NC(=O)[C@H]([C@@H](C)O)NC(=O)[C@H](CC(N)=O)NC1=O)C(=O)N1CCC[C@H]1C(=O)N[C@@H](Cc1c[nH]c2ccccc12)C(=O)N[C@@H](CC(=O)O)C(=O)N[C@@H](C)C(=O)N1CCC[C@H]1C(=O)N[C@@H](CC(C)C)C(=O)N[C@H](C(=O)N[C@@H](C)C(=O)N(C)CC(=O)N(C)CC(=O)N(C)CC(=O)N[C@H](CCCNC(=N)N)C(=O)N[C@H](CCCNC(=N)N)C(N)=O)CSC3 [Peptide 1b] (Ac-CNTWNPWCPWDAPLCA[Sar][Sar][Sar][dR][dR]-NH2; linker 1-8-15 via TBMB) |
| 61 ± 27 | CC(=O)N[C@H]1CSCc2cc3cc(c2)CSC[C@H](NC(=O)[C@H](CCCCNC(=N)N)NC(=O)[C@H](Cc2ccc(O)cc2)NC(=O)[C@@H]2CCN2C(=O)[C@H](Cc2ccccc2)NC(=O)[C@H](CO)NC1=O)C(=O)N[C@@H](CC(C)C)C(=O)N[C@@H](Cc1c[nH]cn1)C(=O)N[C@@H](CCC(N)=O)C(=O)N[C@@H](CC(=O)O)C(=O)N[C@@H](CC(C)C)C(=O)N[C@H](C(N)=O)CSC3 [Peptide 5c] (Ac-CSF[Aze]Y[hArg]CLHQDLC-NH2; linker 1-7-13 via TBMB) |
| 530 ± 70 | CC(=O)N[C@H]1CSCc2cc3cc(c2)CSC[C@H](NC(=O)[C@H](CCCCNC(=N)N)NC(=O)[C@H](Cc2ccc(O)cc2)NC(=O)[C@@H]2CCCN2C(=O)[C@H](Cc2ccccc2)NC(=O)[C@H](CO)NC1=O)C(=O)N[C@@H](CC(C)C)C(=O)N[C@@H](Cc1c[nH]cn1)C(=O)N[C@@H](CCC(N)=O)C(=O)N[C@@H](CC(=O)O)C(=O)N[C@@H](CC(C)C)C(=O)N[C@H](C(N)=O)CSC3 [Peptide 5b] (Ac-CSFPY[hArg]CLHQDLC-NH2; linker 1-7-13 via TBMB) |
| 550 ± 60 | CC(=O)N[C@H]1CSCc2cc3cc(c2)CSC[C@H](NC(=O)[C@H](CCCNC(=N)N)N(C)C(=O)[C@H](Cc2ccc(O)cc2)NC(=O)[C@@H]2CCN2C(=O)[C@H](Cc2ccccc2)NC(=O)[C@H](CO)NC1=O)C(=O)N[C@@H](CC(C)C)C(=O)N[C@@H](Cc1c[nH]cn1)C(=O)N[C@@H](CCC(N)=O)C(=O)N[C@@H](CC(=O)O)C(=O)N[C@@H](CC(C)C)C(=O)N[C@H](C(N)=O)CSC3 [Peptide 5d] (Ac-CSF[Aze]Y[NMeR]CLHQDLC-NH2; linker 1-7-13 via TBMB) |
| 100 ± 20 | CC(=O)N[C@H]1CSCc2cc3cc(c2)CSC[C@H](NC(=O)[C@H](CCCNC(=N)N)NC(=O)[C@H](C)NC(=O)[C@@H]2CCCN2C(=O)[C@H](Cc2c[nH]c4ccccc24)NC(=O)[C@H](CO)NC1=O)C(=O)N[C@@H](CC(C)C)C(=O)N[C@@H](Cc1c[nH]cn1)C(=O)N[C@@H](CCC(N)=O)C(=O)N[C@@H](CC(=O)O)C(=O)N[C@@H](CC(C)C)C(=O)N[C@H](C(N)=O)CSC3 [Peptide 2b] (Ac-CSWPARCLHQDLC-NH2; linker 1-7-13 via TBMB) |
| 340 ± 40 | CC(=O)N[C@H]1CSCc2cc3cc(c2)CSC[C@H](NC(=O)[C@H](CCCNC(=N)N)NC(=O)[C@H](Cc2ccc(O)cc2)NC(=O)[C@@H]2CCCN2C(=O)[C@H](Cc2ccccc2)NC(=O)[C@H](CO)NC1=O)C(=O)N[C@@H](CC(C)C)C(=O)N[C@@H](Cc1c[nH]cn1)C(=O)N[C@@H](CCC(N)=O)C(=O)N[C@@H](CC(=O)O)C(=O)N[C@@H](CC(C)C)C(=O)N[C@H](C(N)=O)CSC3 [Peptide 2c] (Ac-CSFPYRCLHQDLC-NH2; linker 1-7-13 via TBMB) |
| 360 ± 60 | CC(=O)N[C@H]1CSCc2cc3cc(c2)CSC[C@H](NC(=O)[C@H](CCCNC(=N)N)NC(=O)[C@H](Cc2ccc(O)cc2)NC(=O)[C@@H]2CCCN2C(=O)[C@H](Cc2ccccc2)NC(=O)[C@H](CO)NC1=O)C(=O)N[C@@H](CC(C)C)C(=O)N[C@@H](Cc1c[nH]cn1)C(=O)N[C@@H](CCC(N)=O)C(=O)N[C@@H](CC(=O)O)C(=O)N[C@@H](CC(C)C)C(=O)N[C@H](C(N)=O)CSC3 [Peptide 5a] (Ac-CSFPYRCLHQDLC-NH2; linker 1-7-13 via TBMB) |
| 220 ± 40 | CC(=O)N[C@H]1CSCc2cc3cc(c2)CSC[C@H](NC(=O)[C@H](CCCCNC(=N)N)NC(=O)[C@H](Cc2ccc(O)cc2)NC(=O)[C@@H]2CCN2C(=O)[C@H](Cc2ccccc2)NC(=O)[C@H](CO)NC1=O)C(=O)N[C@@H](C)CN[C@@H](Cc1c[nH]cn1)C(=O)N[C@@H](CCC(N)=O)C(=O)N[C@@H](CC(=O)O)C(=O)N[C@@H](CC(C)C)C(=O)N[C@H](C(N)=O)CSC3 [Peptide 2d] |

same assay, conditions: Ki, Ki = koff/kon from pre-equilibrium curves, 25 °C, pH 7.5, PKal 1 nM (0.25 nM for 4b), mean ± SD of at least 3 independent measurements

| SMILES | Ki [pM] |
| --- | --- |
| CC[C@H](C)[C@@H]1NC(=O)[C@H](CC(=O)O)NC(=O)[C@@H]2CCCN2C(=O)[C@H](Cc2ccc(O)cc2)NC(=O)[C@H](Cc2ccc(O)cc2)NC(=O)[C@H](C(C)C)NC(=O)[C@@H]2CSCc3cc(cc(c3)CSC[C@@H](C(=O)N[C@@H](C)C(=O)N(C)CC(=O)N(C)CC(=O)N(C)CC(=O)N[C@H](CCCNC(=N)N)C(=O)N[C@H](CCCNC(=N)N)C(N)=O)NC1=O)CSC[C@H](NC(C)=O)C(=O)N[C@@H](CO)C(=O)N[C@@H](Cc1ccccc1)C(=O)N1CC[C@H]1C(=O)N[C@@H](Cc1ccc(O)cc1)C(=O)N[C@@H](CCCCNC(=N)N)C(=O)N2 [Peptide 4b] (Ac-CSF[Aze]Y[hArg]CVYYPDICA[Sar][Sar][Sar][dR][dR]-NH2; linker 1-7-14 via TBMB) | 140 ± 20 |
